# Experimental data as given in patent US6416964B2, “Methods of identifying modulators of kinases responsive to stress” (Merck & Co., Inc., priority 1998, dated 2002).
# Assays:
# [1] = tested on: 34 kDa Mst kinase (Mst 1 cleavage); assay: 34 kDa Mst kinase activation / Mst 1 cleavage in purified osteoclasts; format: cell-based; settings: for activation of the 34 kDa Mst kinase: purified osteoclasts
# 50 kDa Kinase [2] = assay: in-gel kinase assay (myelin basic protein substrate) in purified preosteoclasts; format: cell-based, mouse
# Description: (§1) The following procedure is a modification of Wesolowski et al. (1995, Exp. Cell Res. 219: 679-686), which is incorporated by reference herein in its entirety. Cocultures are made by adding marrow cells from 6-week old mouse tibia and femur onto a monolayer of MB 1.8 mouse calvaria osteoblasts that are preseeded into culture dishes in α-MEM (minimal essential medium) containing fetal calf serum (10%) and 1,25 Dihydroxy Vitamin D3 (10 nM). Cocultures are maintained, with media changes every 48 hours, for a period of 6 days. Non-osteoclastic cells are removed by treatment of cocultures with Collagenase I (1 mg/ml in Phosphate Buffered Saline [PBS]). Collagenase-sensitive cells are removed by washing with PBS. Preosteoclasts are lifted from the dish using EDTA (0.2 g/L in PBS) and transferred into culture dishes and maintained in α-MEM containing fetal calf serum (10%), 1,25 Dihydroxy Vitamin D3 (10 nM), and m-Colony Stimulating Factor (5 ng/ml). Osteoclast-like cells (collagenase-insensitive, EDTA-insensitive cells) that remain attached to the original coculture dishes are maintained in α-MEM containing fetal calf serum (10%), 1,25 Dihydroxy Vitamin D3 (10 nM), and m-Colony Stimulating Factor (5 ng/ml).
# (§2) Preosteoclasts are generated and purified as described in Example 1. […] Untreated cells are included in the analyses and act as a negative control for kinase activities. Cells are then harvested and lysed in a HEPES (N-(2-hydroxyethyl)piperazine-N′-(2-ethansulfonic acid) or Tris buffer containing the following: β-glycerophosphate (50 mM); Na3VO4 (1 mM); NaF (1 mM); Microcystin LR (1 μM); leupeptin (10 μg/ml); aprotinin (10 μg/ml); phenylmethyl sulfonylfluoride (1 mM). Protein concentrations are determined for each lysate and 5-20 μg are loaded into each lane of a SDS-PAGE (sodium dodecyl sulfate-polyacrylamide gel electrophoresis) gel containing Myelin Basic Protein, or another kinase substrate, which has been polymerized into the gel at a concentration between 50-400 μg/ml. Molecular weight standards are also loaded into one or more lanes of the gels. In-gel kinase assays are run according to a standard procedure based on Kameshita and Fujisawa, 1989 (Anal. Biochem. 183:139-143) and of Gotoh et al., 1990 (Eur. J. Biochem. 193: 661-669), both references being incorporated by reference herein in their entirety. The proteins are electrophoresed in the above gels. The gels are then successively soaked in 50 mM HEPES, pH 7.6; 5 mM 2-mercaptoethanol and each of the following (for each wash): (a) 20% isopropanol; (b) no additions; (c) urea (6 M); (d) Urea (3 M); (e) Urea (0.75 M); and Tween 20 (0.05% vol:vol). Kinase reactions are then run by first soaking the gels in 20 mM HEPES, pH 7.6; 20 mM MgCl2; 2 mM DTT and then in the same buffer containing […] (non-radioactive) with ca. 1000 cpm/pmol ^32P-γ-ATP. The gels are then washed six times with 5% trichloroacetic acid and 1% pyrophosphate. The gels are then stained with Coomassie brilliant blue dye (0.125%) in 50% methanol, 10% acetic acid; destained with 30% methanol, 10% acetic acid; soaked in 2% glycerol; and dried using a gel dryer. The gels are then exposed to autoradiography film for times ranging from several hours to weeks. The bands observed in the autoradipgraphs representing the gels reflect kinase activities. […] The band intensities on the autoradiography film are quantitated by densitometry and comparisons between bands from untreated controls and bands from echistatin-treated cells provide the basis for the analyses.
# [3] = tested on: approximately 60 kDa kinase doublet (Mst 1, Mst 2); assay: as above; format: cell-based, mouse
# Description: as §1, §2
# Mst 1, Mst 2 [4] = assay: in-gel kinase assay in HEK 293 transfectants expressing human αvβ3 integrin; format: cell-based; settings: αvβ3 integrin transfected HEK 293 cells
# 50 kDa Kinase [5] = assay: as above; format: cell-based; settings: αvβ3 integrin transfected HEK 293 cells
# stress reponsive kinases = assay: activation of stress responsive kinases by compounds that modify osteoclast function; format: cell-based
# Description: as §2
# 34 kDa Kinase = assay: in-gel kinase assay in osteoclast-like cells; format: cell-based, mouse
# Description: as §1, §2
# A similar approach is also used to assay for the 34 kDa Kinase and the 130 kDa Kinase.
# Osteoclast-like cells are generated as described in Example 1. The compound or compounds to be evaluated are added at the desired concentration to the osteoclast-like cells for any of various times (1 minute to several hours). Cell lysates are made using standard techniques and in-gel kinase assays are performed as described in Example 2.
# Mst 1, Mst 2 [6] = assay: in-gel kinase assay in Parental HEK 293 cells; format: cell-based, human; settings: 10-60 min (FIG. 5D-5F), Ala^24 echistatin 30 nM
# 50 kDa Kinase [7] = assay: in-gel kinase assay in Parental HEK 293 cells; format: cell-based, human; settings: 10-60 min (FIG. 5D-5F), Ala^24 echistatin 30 nM
# [8] = osteoclast like cells, 30 μM and 100 μM, about 17 hours (FIG. 6)
# [9] = osteoclast-like cells, 100 μM and 300 μM (FIG. 9)
# [10] = dose response, standard (overnight) film exposure (FIG. 2A)
molecule,measurement,setting,value
"O=P(O)(O)C(Cl)(Cl)P(=O)(O)O [Clodronate, 1,1-dichloromethylene-1,1-diphosphonic acid]",activation of the 34 kDa Mst kinase,[1],also induce
"O=C(NC[C@H](NS(=O)(=O)c1ccccc1)C(=O)O)c1ccc(OCCNC2=NCCCN2)cc1 [RGD II, (2-[N-(3,4,5,6-tetrahydropyrimidin-2-yl)amino]ethyloxyphen-4-yl)carbonyl-2(S)-phenylsulfonamido-beta-alanine]",activation of 50 kDa kinase,50 kDa Kinase [2]; 10 μM (FIG. 4B),effective in activating
same,"activation of Mst 1, Mst 2",[3]; 10 μM (FIG. 4B),effective in activating
same,"change in Mst 1 (ca. 59 kDa), Mst 2 (ca. 60 kDa) activities","Mst 1, Mst 2 [4]; 10 μM, 0-60 min (FIG. 5B)",increase
same,change in 50 kDa Kinase activity,"50 kDa Kinase [5]; 10 μM, 0-60 min (FIG. 5B)",increase
same,activation of stress responsive kinases,stress reponsive kinases,activate
Cl.Cl.Cl.O=C(O)C[C@H](Cc1cnc2ccccc2c1)NC(=O)CN1CC[C@H](NCc2ccc3c(n2)NCCC3)C1=O [RGD I],activation of 50 kDa kinase,50 kDa Kinase [2]; 10 nM (FIG. 4B),effective in activating
same,"activation of Mst 1, Mst 2",[3]; 10 nM (FIG. 4B),effective in activating
same,activation of stress responsive kinases,stress reponsive kinases,activate
"NCCCC(O)(P(=O)(O)O)P(=O)(O)O [alendronate, 4-amino-1-hydroxybutylidene-1,1-bisphosphonic acid monosodium trihydrate]",activation of 34 kDa Kinase,"34 kDa Kinase; osteoclast like cells, 30 μM (FIG. 7, lane 2)",activation
same,activation of 34 kDa Kinase,34 kDa Kinase; [8],activation
same,activation of 34 kDa Kinase,"34 kDa Kinase; osteoclast-like cells, 10 μM and 30 μM, about 17 hours (FIG. 9)",activation
same,activation of 34 kDa Kinase immunoprecipitated by anti-Mst and anti-Krs antibody cocktail,"34 kDa Kinase; osteoclast-like cells, 30 μM (FIG. 10, lane 3)",activated
same,activation of 34 kDa Kinase when coincubated with caspase inhibitor Z—VAD—FMK,"34 kDa Kinase; osteoclast-like cells, in the presence of Z—VAD—FMK (FIG. 9, lane 8)",does not activate
same,activation of the 34 kDa Mst kinase,[1],induce activation
same,activation of stress responsive kinases,stress reponsive kinases,activate
"CC(O)(P(=O)(O)O)P(=O)(O)O [etidronate disodium, 1-hydroxyethane-1,1-diphosphonic acid]",activation of 34 kDa Kinase,34 kDa Kinase; [8],failed to activate
same,activation of 34 kDa Kinase,34 kDa Kinase; [9],failed to activate
same,activation of the 34 kDa Mst kinase,[1],to a lesser extent
CC(C)=CCCC(C)=CCCC(C)=CCO [farnesol],blocking of lovastatin effects (34 kDa Mst 1 activity),[1],not
same,reduction of alendronate- and risedronate-induced Mst 1 cleavage,[1],about 50%
CC(C)=CCC/C(C)=C/CC/C(C)=C/CC/C(C)=C/CO [geranylgeraniol],effect on activation of 34 kDa Kinase by 30 μM alendronate monosodium trihydrate,"34 kDa Kinase; osteoclast like cells, 10 μM geranyl geraniol (FIG. 7, lane 3)",negates this activation
same,blocking of alendronate- and risedronate-induced Mst 1 cleavage,[1],essentially completely blocked
same,blocking of clodronate effects (34 kDa Mst kinase),[1],not blocked
same,blocking of lovastatin effects (34 kDa Mst 1 activity),[1],blocked
CC[C@H](C)C(=O)O[C@H]1C[C@@H](C)C=C2C=C[C@H](C)[C@H](CC[C@@H]3C[C@@H](O)CC(=O)O3)[C@H]21 [lovastatin],34 kDa Mst 1 activity,[1]; treatment for 17-24 hours,increases
C[C@@]1(O)CCOC(=O)C1 [mevalonic acid lactone],reduction of alendronate- and risedronate-induced Mst 1 cleavage,[1],about 50%
C[C@@](O)(CCO)CC(=O)O [mevalonic acid],blocking of lovastatin effects (34 kDa Mst 1 activity),[1],blocked
"NCCC(O)(P(=O)(O)O)P(=O)(O)O [pamidronate, 3-amino-1-hydroxypropylidene-1,1-bisphosphonic acid]",activation of the 34 kDa Mst kinase,[1],induce activation
"O=P(O)(O)C(O)(Cc1cccnc1)P(=O)(O)O [risedronate, 1-hydroxy-2-(3-pyridinyl)-ethylidene-1,1-bisphosphonic acid]",activation of the 34 kDa Mst kinase,[1],induce activation
"O=P(O)(O)C(Sc1ccc(Cl)cc1)P(=O)(O)O [tiludronate disodium, (4-chlorophenyl)thiomethane-1,1-disphosphonic acid]",activation of 34 kDa Kinase,34 kDa Kinase; [8],failed to activate
same,activation of 34 kDa Kinase,34 kDa Kinase; [9],failed to activate
calcitonin,activation of stress responsive kinases,stress reponsive kinases,activate
echistatin,activation of kinase of approximately 50 kDa,"50 kDa Kinase [2]; 30 nM, time course (FIG. 1B)",also activated
same,activation of the approximately 50 kDa kinase,"50 kDa Kinase [2]; 30 and 100 nM doses, extended (about 3-4 days) exposure (FIG. 2B)",activation
same,activation of approximately 60 kDa kinase doublet,"[3]; 30 nM, time course (FIG. 1B)",strongly activated
same,concentration of maximal activities of approximately 60 kDa kinase doublet,[3]; [10],about 30 nM
same,concentrations showing activation of approximately 60 kDa kinase doublet,[3]; [10],≥ 10 nM
same,treatment time of maximal kinase activity,[3]; timecourse (FIG. 4A),20 min
same,"change in Mst 1 (ca. 59 kDa), Mst 2 (ca. 60 kDa) activities","Mst 1, Mst 2 [4]; 30 nM, 0-60 min (FIG. 5A, 5C)",increase
same,change in 50 kDa Kinase activity,"50 kDa Kinase [5]; 30 nM, 0-60 min (FIG. 5A, 5C)",increase
same,"effect on activities of Mst 1, Mst 2","Mst 1, Mst 2 [6]",no significant effect
same,effect on activity of 50 kDa Kinase,50 kDa Kinase [7],no significant effect
same,activation of stress responsive kinases,stress reponsive kinases,activate
